The source of these data is patent US20100254965A1, “Adenosine Signaling in Diagnosis, Treatment, and Prevention of Priapism and Erectile Dysfunction” (BOARD OF REGENTS ,THE UNIVERSITY OF TEXAS SYSTEM, priority 2006, published 2010).

Each structure is given as a SMILES string.

The test relates to corpus cavernosal smooth muscle cells (CCSM). Description: cGMP levels in primary CCSM / PVSM. Format: cell-based, mouse. Particulars: CCSM/PVSM of both wild type and A2BR deficient mice, 10 min. The text has this: Results for wild-type and A2B^−/− mouse were statistically significant, p<0.01.
FIG. 18. Adenosine stimulated both cAMP and cGMP induction in corpus cavernosal smooth muscle cells (CCSM) via A2BR activation. (a) Adenosine receptor expression profile in purified primary CCSM. CCSM were purified from adult mouse penes. […] (b) CCSM were isolated and cultured from mouse penes. The cells were switched to serum-free medium and treated with different concentrations of adenosine with or without A2BR antagonist (MRS1706-10 μM), A2AR antagonist (ZM241385-50 nM) or A2AR agonist (CGS-21680-10 μM) alone for 10 min. Then cellular extracts were collected and cAMP levels were measured using an ELISA kit. The data represent mean±SE. *p<0.05, adenosine treated versus the untreated; **p<0.05, adenosine plus MRS1706 or ZM241385 versus the adenosine treated. (c) CCSM were isolated from penes of the wild type and A2BR-deficient mice and cultured with or without adenosine (100 μM), NECA (10 μM), a potent adenosine receptor agonist, forskolin (10 μM), an adenylyl cyclase agonist. […] N=4. *p<0.05, adenosine, forskolin and NECA treated versus the untreated control. (d) Corpus cavernosal strips (CCS) were isolated from wild type and A2BR-deficient mice and treated with different concentrations of adenosine in the presence or absence of L-NAME (100 μM) or MRS1706 (10 μM). 10 min after treatment, cellular extracts were collected and cGMP levels were measured by using a commercial enzyme immunoassay kit (Amersham Pharmacia). Data are expressed as mean±SE. *p<0.05, adenosine treated versus the control; **p<0.05, adenosine treated with MRS1706 versus the adenosine treated; ***p<0.05, CCS of A2BR-deficient mice treated with adenosine versus the CCS of wild type mice treated with adenosine. N=6-7. (e) CCSM were isolated from wild type and A2BR deficient mice and cultured with or without adenosine (100 μM), NECA (10 μM), a potent adenosine receptor agonist, forskolin (10 μM), an adenylyl cyclase agonist, or diethylamine-NONOate (DEA/NO) (10 μM). […] N=4. *p<0.05, DEA/NO treated versus to the untreated control. (f) Both cAMP and cGMP induction contribute to adenosine-mediated decreased PE-induced phosphorylation of myosin light chain (MLC). CCSM and CCS were isolated and cultured with the treatment of phenylephrine (PE-10 μM) in the presence or absence of adenosine (100 μM) or L-NAME (100 μM). 10 min after treatment, cellular extracts were isolated and western blot analysis were performed. The total MLC and phosphorylated MLC at S20 were detected by specific antibodies.
Isolation of primary corpus cavernosal smooth muscle cells (CCSM). Corpus cavernosum tissues were dissected as described above. Cavernosal tissue was washed in PBS and minced into […] pieces. Segments were incubated in 5-10 ml enzyme solutions containing 0.02% collagenase A (0.272 U/mg protein, Roche, Mannheim, Germany) and 0.5% elastase (3.73 U/mg protein, Cell system, St Katharinen, Germany) in a 75 mm flask at 37° C. for 6 hours. Enzymatic digestion was terminated by adding 10 ml DMEM supplemented with 10% fetal calf serum (FCS). […]
Tissue and corpus cavernosum smooth muscle cell (CCSM) cAMP and cGMP measurement. Quantitative assays for cAMP and cGMP were performed by using a commercial enzyme immunoassay kit (Amersham Pharmacia). […]

Take `Nc1ncnc2c1ncn2[C@@H]1O[C@H](CO)[C@@H](O)[C@H]1O` [adenosine]: the cGMP levels entry was “lack of significant differences in cGMP production”. For the same compound, the cGMP levels entry (listed as Adenosine) is “had no effect”.
